# Laboratory results from US20220204510A1, “2,3-DIHYDRO-1H-PYRROLIZINE-7-FORMAMIDE DERIVATIVE AND APPLICATION THEREOF” (CHIA TAI TIANQING PHARMACEUTICAL GROUP CO., LTD., priority 2018, published 2022).
# Like-named read-outs stand apart in the source and are kept apart here.
# Tests used:
# [1] = system: HBV; experiment: qPCR test in the HBV in vitro test (HBV DNA in HepG2.2.15 cells); type: cell-based; settings: Hepatitis B virus, 192 h, HBV DNA in HepG2.2.15 culture medium, day 8, read-out: Half maximal inhibitory concentration (EC50) of HBV
# Description: To evaluate the inhibitory effect of the compound on HBV by detecting content of HBV DNA in HepG2.2.15 cells in a real-time qPCR test, with EC50 of the compound as an indicator.
# 3.1. HepG2.2.15 cells (4×10^4 cells/well) were inoculated into a 96-well plate and cultured at 37° C. in 5% CO2 overnight. 3.2. On day 2, the compound was 3-fold diluted in gradient for a total of 8 dilution gradients. The compound at different concentrations was added into the culture wells in duplicate. The final concentration of DMSO in the culture medium was 1%. 1 μM GLS4 was used as a 100% inhibition control (the structure of GLS4 disclosed in WO2008154817A1 is as follows:
# 1% DMSO was used as a 0% inhibition control. 3.3. On day 5, the culture medium was replaced with a fresh culture medium containing the compound. 3.4. On day 8, the culture medium in the culture wells was collected, and the high-throughput DNA purification kit (Qiagen-51162) was used to extract DNA. For specific steps, refer to the product manual.
# 3.6. Each well of the 96-well PCR plate was added with 15 μL of the reaction mixture, and then with 10 μL of sample DNA or HBV DNA standard. 3.7. The reaction conditions for PCR: heating at 95° C. for 10 min, degeneration at 95° C. for 15 s, and extension at 60° C. for 1 min, with a total of 40 cycles.
# 3.8.1. Calculation of the inhibition percentage: % Inh.=[1−(DNA copy number in the sample−DNA copy number in 1 μM GLS4)/(DNA copy number in the DMSO control−DNA copy number in 1 μM GLS4)]×100. 3.8.2. Calculation of EC50: half maximal inhibitory concentration (EC50) of the compound for HBV was calculated using GraphPad Prism software. 3.8.3.
# [2] = molecular target: T1, CYP1A2 (Homo sapiens, UniProt P05177); experiment: Inhibition of human liver microsomal cytochrome P450 isoenzymes; type: in vitro ADME; settings: human liver microsomes
# T1 construct: from tissue; host or cells: human liver microsomes
# T1 sequence (P05177 1-516): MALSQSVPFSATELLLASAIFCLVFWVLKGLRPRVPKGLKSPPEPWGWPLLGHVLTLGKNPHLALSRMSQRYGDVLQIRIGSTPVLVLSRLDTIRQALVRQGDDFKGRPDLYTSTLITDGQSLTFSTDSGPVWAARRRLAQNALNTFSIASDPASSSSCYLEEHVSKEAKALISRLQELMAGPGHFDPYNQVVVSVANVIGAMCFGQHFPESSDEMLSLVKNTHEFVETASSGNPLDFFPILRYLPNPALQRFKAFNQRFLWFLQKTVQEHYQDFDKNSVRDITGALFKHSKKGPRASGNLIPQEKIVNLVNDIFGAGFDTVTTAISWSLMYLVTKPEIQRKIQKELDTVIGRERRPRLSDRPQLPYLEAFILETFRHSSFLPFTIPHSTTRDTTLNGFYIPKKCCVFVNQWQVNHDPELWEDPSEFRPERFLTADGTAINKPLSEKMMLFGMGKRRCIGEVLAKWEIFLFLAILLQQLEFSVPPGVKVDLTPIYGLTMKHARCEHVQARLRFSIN
# Description: (§1) Experimental objective: to determine the inhibitory effect of the test compound on the activity of human liver microsomal cytochrome P450 isoenzymes (CYP1A2, CYP2C9, CYP2C19, CYP2D6 and CYP3A4). Experimental procedures: first, the test compound (10 mM) was diluted in gradient to prepare working solutions (100× final concentration) at concentrations of: 5, 1.5, 0.5, 0.15, 0.05, 0.015, and 0.005 mM, and working solutions of positive inhibitors for P450 isoenzymes (CYP1A2, CYP2C9, CYP2C19, CYP2D6, and CYP3A4) and the specific substrate mixtures thereof (5 in 1) were prepared simultaneously; human liver microsomes frozen in a−80° C. refrigerator were thawed on ice, and after all thawed, the human liver microsomes were diluted with PB to prepare a working solution at a specific concentration (0.253 mg/mL); 20 μL of the substrate mixture (20 μL of PB was added into the blank well) and 158 μL of the working solution of human liver microsomes were added into the reaction plate which was then placed on ice for use; then 2 μL of the test compound at each concentration (N=1) and a specific inhibitor (N=2) were added into the corresponding well, and the group without the inhibitor (test compound or the positive inhibitor) was added with a corresponding organic solvent as a control sample (the test compound control sample was 1:1 DMSO:MeOH; the positive control sample was 1:9 DMSO:MeOH); after pre-incubation under a 37° C. water bath for 10 min, 20 μL of a coenzyme factor (NADPH) solution was added into the reaction plate and incubated under a 37° C. water bath for 10 min, 400 μL of a cold acetonitrile solution (the internal standard was 200 ng/mL Tolbutamide and Labetalol) was added to terminate the reaction, and the reaction plate was placed on a shaker and shaken for 10 min; after centrifugation at 4,000 rpm for 20 min, 200 μL of the supernatant was collected and added to 100 μL of water to dilute the sample, and, finally, the plate was sealed, oscillated shaken evenly, and subjected to LC/MS/MS detection.
# [3] = molecular target: T2, CYP2C19 (Homo sapiens, UniProt P33261); experiment: as above; type: in vitro ADME; settings: human liver microsomes
# T2 construct: from tissue; host or cells: human liver microsomes
# T2 sequence (P33261 whole entry): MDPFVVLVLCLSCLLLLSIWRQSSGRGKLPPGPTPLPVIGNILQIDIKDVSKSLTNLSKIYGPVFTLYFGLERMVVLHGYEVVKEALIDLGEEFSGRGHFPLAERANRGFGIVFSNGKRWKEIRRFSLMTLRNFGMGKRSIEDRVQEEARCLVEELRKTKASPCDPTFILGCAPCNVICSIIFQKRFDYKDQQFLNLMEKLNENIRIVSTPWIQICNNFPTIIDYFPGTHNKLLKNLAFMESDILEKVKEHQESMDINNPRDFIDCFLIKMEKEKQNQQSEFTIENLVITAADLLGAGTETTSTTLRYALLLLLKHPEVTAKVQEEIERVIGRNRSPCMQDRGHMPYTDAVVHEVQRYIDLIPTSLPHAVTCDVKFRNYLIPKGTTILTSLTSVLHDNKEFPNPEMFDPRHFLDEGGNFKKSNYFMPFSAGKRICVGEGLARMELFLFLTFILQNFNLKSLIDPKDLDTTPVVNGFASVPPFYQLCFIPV
# Description: as §1
# [4] = molecular target: T3, CYP2C9 (Homo sapiens, UniProt P11712); experiment: as above; type: in vitro ADME; settings: human liver microsomes
# T3 construct: from tissue; host or cells: human liver microsomes
# T3 sequence (P11712 whole entry): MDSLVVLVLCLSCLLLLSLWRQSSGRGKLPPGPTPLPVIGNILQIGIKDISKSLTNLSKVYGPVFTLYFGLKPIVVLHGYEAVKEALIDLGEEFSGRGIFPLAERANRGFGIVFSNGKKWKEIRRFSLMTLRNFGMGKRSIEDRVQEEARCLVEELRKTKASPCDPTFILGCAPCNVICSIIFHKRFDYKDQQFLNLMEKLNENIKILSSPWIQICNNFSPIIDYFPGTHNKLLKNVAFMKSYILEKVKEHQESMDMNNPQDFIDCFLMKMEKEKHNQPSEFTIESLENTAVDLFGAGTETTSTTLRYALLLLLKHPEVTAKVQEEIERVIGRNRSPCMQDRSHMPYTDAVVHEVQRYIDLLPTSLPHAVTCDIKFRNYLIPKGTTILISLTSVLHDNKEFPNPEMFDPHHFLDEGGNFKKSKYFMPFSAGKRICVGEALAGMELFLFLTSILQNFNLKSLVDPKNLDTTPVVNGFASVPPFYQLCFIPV
# Description: as §1
# [5] = molecular target: T4, CYP2D6 (Homo sapiens, UniProt P10635); experiment: as above; type: in vitro ADME; settings: human liver microsomes
# T4 construct: from tissue; host or cells: human liver microsomes
# T4 sequence (P10635 whole entry): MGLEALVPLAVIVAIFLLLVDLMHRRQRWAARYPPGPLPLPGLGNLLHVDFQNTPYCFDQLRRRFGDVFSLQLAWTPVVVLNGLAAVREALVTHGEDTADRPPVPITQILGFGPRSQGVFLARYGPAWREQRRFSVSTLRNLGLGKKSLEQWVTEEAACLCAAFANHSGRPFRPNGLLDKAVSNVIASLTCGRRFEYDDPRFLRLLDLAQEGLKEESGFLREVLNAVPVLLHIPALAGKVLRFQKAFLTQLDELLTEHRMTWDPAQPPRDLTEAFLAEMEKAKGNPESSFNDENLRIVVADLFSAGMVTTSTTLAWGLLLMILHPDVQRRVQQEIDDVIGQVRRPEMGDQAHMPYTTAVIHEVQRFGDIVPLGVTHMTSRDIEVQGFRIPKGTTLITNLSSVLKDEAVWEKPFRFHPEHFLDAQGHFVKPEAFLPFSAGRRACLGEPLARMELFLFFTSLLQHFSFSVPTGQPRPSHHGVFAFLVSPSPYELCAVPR
# Description: as §1
# [6] = molecular target: T5, CYP3A4 (Homo sapiens, UniProt P08684); experiment: as above; type: in vitro ADME; settings: human liver microsomes
# T5 construct: from tissue; host or cells: human liver microsomes
# T5 sequence (P08684 whole entry): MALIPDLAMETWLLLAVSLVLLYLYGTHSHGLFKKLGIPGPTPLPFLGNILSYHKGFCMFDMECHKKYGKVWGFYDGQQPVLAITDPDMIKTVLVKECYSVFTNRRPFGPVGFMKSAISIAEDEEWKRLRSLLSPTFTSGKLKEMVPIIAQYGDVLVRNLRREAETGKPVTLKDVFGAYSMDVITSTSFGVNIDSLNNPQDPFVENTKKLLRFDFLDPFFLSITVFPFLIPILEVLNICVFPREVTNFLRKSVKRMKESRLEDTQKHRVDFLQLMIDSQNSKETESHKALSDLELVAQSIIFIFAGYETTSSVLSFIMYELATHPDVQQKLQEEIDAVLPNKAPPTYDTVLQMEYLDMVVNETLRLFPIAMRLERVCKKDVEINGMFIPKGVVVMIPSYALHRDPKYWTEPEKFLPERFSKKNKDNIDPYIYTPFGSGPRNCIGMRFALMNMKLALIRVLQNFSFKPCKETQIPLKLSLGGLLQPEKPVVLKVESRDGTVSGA
# Description: as §1
# [7] = Metabolic stability in liver microsomes; type: in vitro ADME; settings: mouse, CD-1 mice liver microsomes
# Description: (§2) Experimental objective: to evaluate the metabolic stability of the test compound in CD-1 mice and human liver microsomes
# (§3) Experimental procedures: first, the test compound (10 mM) was subjected to a two-step dilution, where the compound was diluted to an intermediate concentration of 100 μM with 100% methanol, and the working solution was diluted to 10 μM with a potassium phosphate buffer; eight 96-well incubation plates were prepared, and named T0, T5, T10, T20, T30, T60, Blank and NCF60, respectively; the reaction time points corresponding to the first 6 incubation plates were 0, 5, 10, 20, 30 and 60 min, respectively; for the Blank plate, neither the test compound nor a control compound was added, and for the NCF60 plate, potassium phosphate buffer was used in an incubation of 60 min in place of a NADPH regeneration system solution; 10 μL of the test compound working solution and 80 μL of the microsome working solution (liver microsome protein concentration was 0.625 mg/mL) were added to the T0, T5, T10, T20, T30, T60 and NCF60 plates, while only the microsome working solution was added to the Blank plate, and all the incubation plates were then placed in a 37° C. water bath for pre-incubation for about 10 min; after the pre-incubation, 10 μL of a NADPH regeneration system working solution was added into each sample well of all the plates except the NCF60 plate and T0 plate to start the reaction, and 10 μL of potassium phosphate buffer was added to each well of the NCF60 plate; therefore, in the test compound or control compound samples, the final reaction concentrations of the compound, testosterone, diclofenac and propafenone were 1 μM, the concentration of the liver microsomes was 0.5 mg/mL, and the final concentrations of DMSO and acetonitrile in the reaction system were 0.01% (v/v) and 0.99% (v/v), respectively; after incubation for an appropriate time (such as 5, 10, 20, 30, and 60 min), 300 μL of a stop solution (acetonitrile solution containing 100 ng/mL tolbutamide and 100 ng/mL labetalol) was added to each sample well to stop the reaction; 300 μL of the stop solution and then 10 μL of the NADPH working solution were added to the T0 plate, all the sample plates were shaken and centrifuged in a centrifuge (3220×g) for 20 min, and then 100 μL of supernatant was taken from each well and diluted with 300 μL of pure water for liquid chromatography-tandem mass spectrometry analysis.
# [8] = Metabolic stability in liver microsomes; type: in vitro ADME, human
# Description: as §2, §3
compound,measurement,setting,value
C[C@]1(NC(=O)C(=O)c2c(Cl)c(C(=O)Nc3ccc(F)c(F)c3)c3n2CCC3)CC[C@@H](CC(=O)O)CC1 [Compound 17],EC50,[1],0.007 µM
same,IC50,[2],> 50 µM
same,IC50,[3],> 50 µM
same,IC50,[4],> 50 µM
same,IC50,[5],> 50 µM
same,IC50,[6],> 50 µM
same,CLint scaled at 1 μM,[7],< 38 mL/min/kg
same,half-life at 1 μM,"[7]; 1 μM compound, 0.5 mg/mL",> 2.42 h
same,microsomal CLint at 1 μM,[7]; read-out: CLint(mic),< 9.6 µL/min/mg
same,half-life at 1 μM,"[8]; Human liver microsomes, 1 μM compound, 0.5 mg/mL",> 2.42 h
same,CLint scaled at 1 μM,[8]; human liver microsomes,< 8.6 mL/min/kg
same,microsomal CLint at 1 μM,"[8]; human liver microsomes, read-out: CLint(mic)",< 9.6 µL/min/mg
